pKi: −log10 of the molar value.

In the experiment the target is PIK3CG (human) (UniProt P48736). As to the kind of experiment: Inhibition of PIK3CG Kinase Activity.
PIK3CG (human), sequence (P48736 whole entry, looked up): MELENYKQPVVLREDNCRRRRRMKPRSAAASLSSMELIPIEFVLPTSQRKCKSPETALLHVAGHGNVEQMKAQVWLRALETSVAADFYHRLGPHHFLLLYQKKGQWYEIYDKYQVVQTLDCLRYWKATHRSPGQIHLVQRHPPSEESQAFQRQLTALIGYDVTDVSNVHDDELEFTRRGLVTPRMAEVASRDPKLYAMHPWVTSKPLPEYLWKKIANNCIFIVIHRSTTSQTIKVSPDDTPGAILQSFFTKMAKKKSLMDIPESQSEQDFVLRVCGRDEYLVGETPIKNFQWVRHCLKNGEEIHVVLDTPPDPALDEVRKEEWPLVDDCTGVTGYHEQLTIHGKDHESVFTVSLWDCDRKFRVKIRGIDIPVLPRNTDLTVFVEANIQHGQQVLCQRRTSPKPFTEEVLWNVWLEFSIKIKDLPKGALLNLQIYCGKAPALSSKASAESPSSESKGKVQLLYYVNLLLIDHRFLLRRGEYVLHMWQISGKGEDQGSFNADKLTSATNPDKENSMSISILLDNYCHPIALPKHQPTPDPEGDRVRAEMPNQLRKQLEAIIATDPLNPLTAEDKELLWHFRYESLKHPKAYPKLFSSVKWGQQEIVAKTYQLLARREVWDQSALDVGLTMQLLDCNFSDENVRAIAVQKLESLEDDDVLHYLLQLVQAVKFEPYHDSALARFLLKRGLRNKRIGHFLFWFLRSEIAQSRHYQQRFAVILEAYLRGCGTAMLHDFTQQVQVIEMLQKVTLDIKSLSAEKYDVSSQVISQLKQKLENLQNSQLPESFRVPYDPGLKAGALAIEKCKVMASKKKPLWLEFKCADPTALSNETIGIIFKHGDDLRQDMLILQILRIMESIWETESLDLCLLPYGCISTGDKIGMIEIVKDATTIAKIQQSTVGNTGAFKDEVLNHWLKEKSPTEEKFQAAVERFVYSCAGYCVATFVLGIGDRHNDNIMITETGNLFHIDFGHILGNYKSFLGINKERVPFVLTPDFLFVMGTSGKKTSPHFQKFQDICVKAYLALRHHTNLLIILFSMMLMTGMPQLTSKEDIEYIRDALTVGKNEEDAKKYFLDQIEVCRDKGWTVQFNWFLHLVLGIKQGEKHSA
As to `CCOC1c2nc(-c3cnc(OC)c(OC)c3)ccc2C(=O)N1c1cnn(CC(F)(F)F)c1` (stereo unspecified), the pKi was over 7.00.

`Cc1cc(-c2cncc(OCC(F)F)c2)nc2c1C(=O)N(c1cnn(CC#N)c1)C2(C)C` showed a pKi of over 7.00.

Consider `COc1cc(-c2ccc3c(n2)CN(c2cnn(CCN4CCOCC4)c2)C3=O)cnc1OC`, for which the pKi is 6.31 to 7.00.

`COc1cc(-c2cc(C)c3c(n2)C(C)(C)N(c2cnn(C[C@@H](C)O)c2)C3=O)cnc1OC` gave a pKi of over 7.00.

As for `COc1cncc(-c2cc(C)c3c(n2)[C@]2(CCCO2)N(c2cnn(CC(F)(F)F)c2)C3=O)c1`, the pKi is 6.31 to 7.00.

As to `Cc1cc(-c2cncc(OC(F)F)c2)nc2c1C(=O)N(c1cnn(C)c1)C2`, the pKi is over 7.00.

In turn, `COc1cc(-c2ccc3c(n2)C(C)N(c2cnn(C=C(F)F)c2)C3=O)cnc1OC` (stereo unspecified) had a pKi of over 7.00.

`COc1cc(-c2ccc3c(n2)CN(c2ccnc(OCC(F)F)c2)C3=O)cnc1OC`: the pKi is 6.31 to 7.00.

In the case of `Cc1cc(-c2cncc(C(=O)O)c2)nc2c1C(=O)N(c1cnn(CC(F)(F)F)c1)C2`, the pKi is over 7.00.

Turning to `CCc1cc(N2Cc3nc(-c4cnc(OC)c(OC)c4)cc(C)c3C2=O)nn1C`, the pKi was over 7.00.

`C=C1c2nc(-c3cnc(OC)c(OC)c3)ccc2C(=O)N1c1cnn(CC(F)(F)F)c1` gave a pKi of over 7.00.

`COc1cc(-c2ccc3c(n2)[C@@H](C)N(c2cccc(C(C)(C)C#N)n2)C3=O)cnc1OC` had a pKi of over 7.00.

`COc1cc(-c2cc(C)c3c(n2)[C@@H](C)N(c2cnn(C[C@@H](C)O)c2)C3=O)cnc1OC` showed a pKi of over 7.00.

In the case of `COc1cc(-c2cc(C)c3c(n2)CN(c2cn(C)cn2)C3=O)cnc1OC`, the pKi is over 7.00.

In turn, `COc1cc(N2Cc3nc(-c4cnc(OC)c(OC)c4)ccc3C2=O)n[nH]1` gave a pKi of over 7.00.

Take `COc1cc(-c2ccc3c(n2)CN(c2cnn(C(CO)C(F)(F)F)c2)C3=O)cnc1OC` (stereo unspecified): the pKi is over 7.00.

With `COc1cc(-c2cc(C)c3c(n2)CN(c2ccn(C4CC4)n2)C3=O)cnc1OC`, the pKi was over 7.00.

Compound `COc1cc(-c2ccc3c(c2)CN(c2csc(C)c2)C3=O)cnc1OC` had a pKi of 6.31 to 7.00.

As to `COc1cc(-c2ccc3c(n2)CN(c2cncc(CO)c2)C3=O)cnc1OC`, the pKi is over 7.00.

As for `COc1cc(-c2cc(C)c3c(n2)CN(c2nc(CO)cs2)C3=O)cnc1OC`, the pKi was over 7.00.

`CCCOc1cc(-c2cc(C)c3c(n2)CN(c2cn[nH]c2)C3=O)cnc1OC` showed a pKi of over 7.00.

Compound `COc1cc(-c2ccc3c(n2)[C@@H](C)N(c2ccn(CC(C)(C)O)n2)C3=O)cnc1OC` showed a pKi of over 7.00.

With `COc1cc(-c2cc(C)c3c(n2)CN(c2cnn(C)c2)C3=O)cnc1OC`, the pKi was over 7.00.

Regarding `COc1cc(-c2ccc3c(n2)CN(c2cncs2)C3=O)cnc1OC`, the pKi was over 7.00.

In turn, `Cc1cc(-c2cncc(OCC(F)(F)F)c2)nc2c1C(=O)N(c1cnn(CC(F)(F)F)c1)C2(C)C` gave a pKi of over 7.00.

With `Cc1cc(-c2cncc(C(=O)N3CCCC3)c2)nc2c1C(=O)N(c1cnn(CC(F)(F)F)c1)C2`, the pKi was 6.31 to 7.00.

As to `COc1cc(-c2ccc3c(n2)CN(c2ccc(N4CCOC(CO)C4)nc2)C3=O)cnc1OC` (stereo unspecified), the pKi is 6.31 to 7.00.

As for `COc1ncc(-c2cc(C)c3c(n2)CN(c2cnn(C(C)(C)C#N)c2)C3=O)cc1OCC1CC1`, the pKi is over 7.00.

Turning to `COc1cc(-c2cc(C)c3c(n2)CN(c2cncc(OCC(F)(F)F)c2)C3=O)cnc1OC`, the pKi was over 7.00.

Compound `CCn1nc(N2Cc3nc(-c4cnc(OC)c(OC)c4)ccc3C2=O)cc1COC` had a pKi of over 7.00.

The compound `COc1ncc(-c2cc(C)c3c(n2)C(C)(C)N(c2cnn(CC(F)(F)F)c2)C3=O)cc1C(=O)NCC(C)(C)O` showed a pKi of over 7.00.

`COc1cc(-c2cc(C)c3c(n2)CN(c2cncc(S(C)(=O)=O)c2)C3=O)cnc1OC` had a pKi of over 7.00.

Turning to `COc1cc(-c2cc(C)c3c(n2)C2(CCCO2)N(c2cnn(CC(F)(F)F)c2)C3=O)cnc1OC` (stereo unspecified), the pKi is over 7.00.

`COc1ncc(-c2cc(C)c3c(n2)C(C)(C)N(c2cnn(CC(F)(F)F)c2)C3=O)cc1C(=O)NC(C)CO` (stereo unspecified) showed a pKi of over 7.00.

Take `COc1cc(-c2cc(C)c3c(n2)CN(c2ccc(OCC(F)(F)F)nc2)C3=O)cnc1OC`: the pKi is over 7.00.

In turn, `COc1ncc(-c2cc(C)c3c(n2)C(C)(C)N(c2cnn(CC(F)(F)F)c2)C3=O)cc1C(=O)NC(C)(C)C` had a negative-log Ki (pKi) of over 7.00.

Regarding `COc1cc(-c2ccc3c(c2)CN(c2cnn(CC4CCCO4)c2)C3=O)cnc1OC` (stereo unspecified), the pKi is 6.31 to 7.00.

As to `CCn1ccc(N2C(=O)c3ccc(-c4cnc(OC)c(OC)c4)nc3[C@@H]2C)n1`, the pKi was over 7.00.

For the compound `CCOc1cc(N2Cc3nc(-c4cnc(OC)c(OC)c4)cc(C)c3C2=O)ccn1`, the pKi was over 7.00.

`COc1cc(-c2ccc3c(n2)CN(c2cn(CC(F)(F)F)cn2)C3=O)cnc1OC` gave a pKi of over 7.00.

As for `COc1ncc(-c2cc(C)c3c(n2)C(C)(C)N(c2cnn(CC(F)(F)F)c2)C3=O)cc1C(=O)NC1CC1`, the pKi was over 7.00.

Compound `COc1ncc(-c2cc(C)c3c(n2)CN(c2cnn(CC(F)(F)F)c2)C3=O)cc1CO` gave a pKi of over 7.00.

Consider `COc1cc(-c2cc(C)c3c(n2)C(C)(C)N(c2cnn(CC(F)F)c2)C3=O)cnc1C`, for which the pKi is over 7.00.

As to `COc1cc(-c2cc(C)c3c(n2)CN(c2cscn2)C3=O)cnc1OC`, the pKi is over 7.00.

With `COc1cc(-c2cc(C)c3c(n2)CN(c2ccnc(C)c2)C3=O)cnc1OC`, the pKi was over 7.00.

In turn, `COc1ncc(-c2cc(C)c3c(n2)CN(c2cn[nH]c2)C3=O)cc1OC(C)C` showed a pKi of over 7.00.

In the case of `COc1cccc(-c2cc(C)c3c(n2)CN(c2cnn(CC(F)(F)F)c2)C3=O)n1`, the pKi is over 7.00.

`COc1cc(-c2ccc3c(n2)CN(c2cnn(CCn4cccc4)c2)C3=O)cnc1OC` had a pKi of over 7.00.

On to `CCOc1ncc(-c2cc(C)c3c(n2)[C@]2(CCCO2)N(c2ccn(CC)n2)C3=O)cc1OC`, for which the pKi was 6.31 to 7.00.

Take `COc1cc(-c2ccc3c(n2)CN(c2cnn(C(F)(F)C#N)c2)C3=O)cnc1OC`: the pKi was over 7.00.

Regarding `COc1cc(-c2cc(C)c3c(n2)CN(c2cncs2)C3=O)cnc1OC`, the pKi was over 7.00.

The compound `CCCOc1cc(-c2cc(C)c3c(n2)C(C)(C)N(c2cnn(CC#N)c2)C3=O)cnc1CC` showed a pKi of over 7.00.

`COc1ccc(-c2cc(C)c3c(c2)CN(c2cnn(CC#N)c2)C3=O)cc1OC` had a pKi of over 7.00.

`COc1ncc(-c2cc(C)c3c(n2)C(C)(C)N(c2cnn(CC(F)(F)F)c2)C3=O)cc1C(=O)N(C)C` gave a pKi of over 7.00.

The compound `COc1cc(-c2ccc3c(n2)[C@@H](C)N(c2ccn(CC(F)(F)F)n2)C3=O)cnc1OC` showed a pKi of over 7.00.

`CCOc1cncc(-c2cc(C)c3c(n2)[C@@](C)(OC)N(c2cnn(CC(F)(F)F)c2)C3=O)c1` had a pKi of over 7.00.

In turn, `CCNC(=O)c1cc(-c2cc(C)c3c(n2)C(C)(C)N(c2cnn(CC(F)F)c2)C3=O)cnc1OC` had a pKi of over 7.00.

Regarding `COc1cncc(-c2cc(C)c3c(n2)[C@H](C)N(c2ccn(C[C@H](C)O)n2)C3=O)c1`, the pKi was over 7.00.

`COc1cc(-c2ccc3c(n2)[C@@H](C)N(c2ccn(C[C@@H](C)O)n2)C3=O)cnc1OC` had a pKi of over 7.00.

In turn, `COc1cc(-c2cc(C)c3c(n2)CN(c2ccn([C@H]4CCOC4)n2)C3=O)cnc1F` showed a pKi of over 7.00.

In the case of `Cc1cc(-c2cncc(N)c2)nc2c1C(=O)N(c1cnn(CC(F)(F)F)c1)C2`, the pKi was 6.31 to 7.00.

Source of the values: the Kinase Knowledgebase extract (Sharma et al. 2016).
